Assay results from patent US9212182B2, “Bicyclic sulfonamide compounds as sodium channel inhibitors” (AMGEN INC., priority 2013, dated 2015).
Like-named read-outs stand apart in the source and are kept apart here.

Molecular target: Nav 1.7 (Homo sapiens (Human), UniProt Q15858)
Experiment: in-vitro Nav 1.7 PX (IC50)
Format: cell-based
[1] = in-vitro Nav 1.7 PX data (PatchXpress)

Chain of Nav 1.7 (Q15858 whole entry): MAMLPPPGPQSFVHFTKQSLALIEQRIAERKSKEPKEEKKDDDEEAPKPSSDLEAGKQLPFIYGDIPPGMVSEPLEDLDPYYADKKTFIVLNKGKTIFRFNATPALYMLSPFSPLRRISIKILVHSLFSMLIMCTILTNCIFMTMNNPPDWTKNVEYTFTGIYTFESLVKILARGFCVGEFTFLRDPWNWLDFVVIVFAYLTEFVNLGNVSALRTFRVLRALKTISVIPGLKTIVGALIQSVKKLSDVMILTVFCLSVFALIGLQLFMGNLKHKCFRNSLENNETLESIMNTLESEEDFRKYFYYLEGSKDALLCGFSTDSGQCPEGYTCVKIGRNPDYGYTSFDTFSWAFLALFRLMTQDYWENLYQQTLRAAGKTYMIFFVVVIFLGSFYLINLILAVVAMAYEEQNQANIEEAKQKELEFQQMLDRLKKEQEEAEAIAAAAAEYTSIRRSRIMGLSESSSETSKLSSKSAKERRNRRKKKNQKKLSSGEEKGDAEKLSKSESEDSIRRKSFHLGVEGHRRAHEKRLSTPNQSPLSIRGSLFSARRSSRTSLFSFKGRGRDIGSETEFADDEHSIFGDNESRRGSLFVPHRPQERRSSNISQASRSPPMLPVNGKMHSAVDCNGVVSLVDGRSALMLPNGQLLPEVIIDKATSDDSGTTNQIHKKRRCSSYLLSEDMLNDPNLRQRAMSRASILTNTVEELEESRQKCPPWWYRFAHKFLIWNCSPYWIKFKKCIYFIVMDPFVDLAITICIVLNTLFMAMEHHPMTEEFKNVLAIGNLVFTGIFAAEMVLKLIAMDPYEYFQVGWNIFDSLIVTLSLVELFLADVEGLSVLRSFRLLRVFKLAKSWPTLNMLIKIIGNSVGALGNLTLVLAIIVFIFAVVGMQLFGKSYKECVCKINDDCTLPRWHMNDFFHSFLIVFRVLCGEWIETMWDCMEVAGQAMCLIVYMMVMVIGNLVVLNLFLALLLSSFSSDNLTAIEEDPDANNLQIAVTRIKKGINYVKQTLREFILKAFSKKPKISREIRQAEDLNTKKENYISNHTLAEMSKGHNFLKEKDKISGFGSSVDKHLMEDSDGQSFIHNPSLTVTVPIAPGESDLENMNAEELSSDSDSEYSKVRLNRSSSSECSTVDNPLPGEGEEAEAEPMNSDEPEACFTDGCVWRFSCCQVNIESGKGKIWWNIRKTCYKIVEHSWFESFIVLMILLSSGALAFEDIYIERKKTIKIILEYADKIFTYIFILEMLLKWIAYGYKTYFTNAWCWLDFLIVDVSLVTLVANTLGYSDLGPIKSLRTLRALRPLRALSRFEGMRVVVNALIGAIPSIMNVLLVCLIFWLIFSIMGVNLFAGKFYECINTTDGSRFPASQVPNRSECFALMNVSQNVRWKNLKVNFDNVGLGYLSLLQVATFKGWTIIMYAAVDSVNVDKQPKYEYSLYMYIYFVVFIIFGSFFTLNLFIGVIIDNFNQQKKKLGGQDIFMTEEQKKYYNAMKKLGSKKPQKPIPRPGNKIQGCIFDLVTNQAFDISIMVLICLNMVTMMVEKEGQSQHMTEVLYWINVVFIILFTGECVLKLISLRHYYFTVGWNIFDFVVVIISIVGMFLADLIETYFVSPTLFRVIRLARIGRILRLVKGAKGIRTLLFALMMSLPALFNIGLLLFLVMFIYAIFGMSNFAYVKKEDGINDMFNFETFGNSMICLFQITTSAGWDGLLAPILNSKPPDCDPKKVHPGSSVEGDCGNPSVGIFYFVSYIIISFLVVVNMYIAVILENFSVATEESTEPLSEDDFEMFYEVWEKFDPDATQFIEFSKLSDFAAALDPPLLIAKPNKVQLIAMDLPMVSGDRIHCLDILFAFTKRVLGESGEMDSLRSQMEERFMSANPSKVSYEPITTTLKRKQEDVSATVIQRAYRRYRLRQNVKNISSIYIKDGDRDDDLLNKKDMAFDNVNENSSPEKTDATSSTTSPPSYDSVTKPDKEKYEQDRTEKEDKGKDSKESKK

Compound | IC50 | IC50 (in-vitro Nav 1.7 PX data) | also measured
COc1cc(Br)c(F)cc1-n1c(=O)ccc2cc(S(=O)(=O)Nc3cc(OCC(C)C)ncn3)ccc21 (atropisomer, axis not shown; (P)) [Example 1187, (P)-1-(4-bromo-5-fluoro-2-methoxyphenyl)-N-(6-(2-methylpropoxy)-4-pyrimidinyl)-2-oxo-1,2-dihydro-6-quinolinesulfonamide] | 1660 nM |  | 
COc1cc(-c2ccc(Cl)c(C)c2)c(F)cc1-n1c(=O)c(OC)cc2cc(S(=O)(=O)Nc3ccon3)ccc21 (atropisomer, axis not shown; (M)) [Example 413, (M)-1-(4′-chloro-2-fluoro-5-methoxy-3′-methyl-[1,1′-biphenyl]-4-yl)-N-(isoxazol-3-yl)-3-methoxy-2-oxo-1,2-dihydroquinoline-6-sulfonamide] | 5890 nM |  | 
COc1ccc(C)c(-c2ccc(-n3c(=O)ccc4cc(S(=O)(=O)Nc5ccon5)ccc43)c(OC)c2)c1 [Example 1037, 1-(3,5′-dimethoxy-2′-methyl-4-biphenylyl)-N-3-isoxazolyl-2-oxo-1,2-dihydro-6-quinolinesulfonamide] |  |  | IC50 [1]: 24 nM
COc1cc(-c2cccc(C)c2)ccc1-n1c(=O)ccc2cc(S(=O)(=O)Nc3cc(C)ncn3)ccc21 [Example 1131, 1-(3-methoxy-3′-methyl-4-biphenylyl)-N-(6-methyl-4-pyrimidinyl)-2-oxo-1,2-dihydro-6-quinolinesulfonamide] |  | 155 nM | 
O=c1ccc2cc(S(=O)(=O)Nc3ccon3)ccc2n1-c1ccc(-c2cccc(F)c2)cc1CC(O)CO (racemic) [Example 327, 1-(3-((2R)-2,3-dihydroxypropyl)-3′-fluoro-4-biphenylyl)-N-3-isoxazolyl-2-oxo-1,2-dihydro-6-quinolinesulfonamide, 1-(3-((2S)-2,3-dihydroxypropyl)-3′-fluoro-4-biphenylyl)-N-3-isoxazolyl-2-oxo-1,2-dihydro-6-quinolinesulfonamide] | 5570 nM |  | 
COc1ccc(-c2cc(F)cc(Cl)c2)cc1-n1c(=O)ccc2cc(S(=O)(=O)Nc3cccnn3)ccc21 [Example 902, 1-(3′-chloro-5′-fluoro-4-methoxy-3-biphenylyl)-2-oxo-N-3-pyridazinyl-1,2-dihydro-6-quinolinesulfonamide] |  | 77 nM | 
COc1cc(-c2ccc(Cl)c(F)c2)ccc1-n1c(=O)ccc2cc(S(=O)(=O)Nc3ccon3)ccc21 (atropisomer, axis not shown; (M)) [Example 579, (M)-1-(4′-chloro-3′-fluoro-3-methoxy-4-biphenylyl)-N-3-isoxazolyl-2-oxo-1,2-dihydro-6-quinolinesulfonamide] | 4310 nM |  | 
COc1cc(-c2ccc(Cl)cc2C(N)=O)c(F)cc1-n1c(=O)ccc2cc(S(=O)(=O)Nc3ccon3)ccc21 [Example 755, 4-chloro-2′-fluoro-4′-(6-(3-isoxazolylsulfamoyl)-2-oxo-1(2H)-quinolinyl)-5′-methoxy-2-biphenylcarboxamide] |  | 351 nM | 
COc1cc(-c2cc(F)c(F)cc2F)ccc1-n1c(=O)ccc2cc(S(=O)(=O)Nc3ccon3)ccc21 [Example 1024, N-3-isoxazolyl-2-oxo-1-(2′,4′,5′-trifluoro-3-methoxy-4-biphenylyl)-1,2-dihydro-6-quinolinesulfonamide] |  | 62 nM | 
COc1ccc(-c2ccc(F)cc2)cc1-n1c(=O)ccc2cc(S(=O)(=O)Nc3ccon3)ccc21 [Example 844, 1-(4′-fluoro-4-methoxy-3-biphenylyl)-N-3-isoxazolyl-2-oxo-1,2-dihydro-6-quinolinesulfonamide] |  | 215 nM | 
COc1ccc(Br)cc1-n1c(=O)ccc2cc(S(=O)(=O)Nc3ccon3)ccc21 [Example 851, 1-(5-bromo-2-methoxyphenyl)-N-3-isoxazolyl-2-oxo-1,2-dihydro-6-quinolinesulfonamide] |  | 371 nM | 
CCOc1cccc(-c2cc(OC)c(-n3c(=O)ccc4cc(S(=O)(=O)Nc5ccon5)ccc43)cc2F)c1 [Example 727, 1-(3′-ethoxy-2-fluoro-5-methoxy-4-biphenylyl)-N-3-isoxazolyl-2-oxo-1,2-dihydro-6-quinolinesulfonamide] |  | 25 nM | 
COc1ccc(-c2ccc(Cl)c(C)c2)cc1-n1c(=O)ccc2cc(S(=O)(=O)Nc3ccon3)ccc21 [Example 872, 1-(4′-chloro-4-methoxy-3′-methyl-3-biphenylyl)-N-3-isoxazolyl-2-oxo-1,2-dihydro-6-quinolinesulfonamide] |  | 11600 nM | 
COc1ccc(F)c(-c2ccc(-n3c(=O)ccc4cc(S(=O)(=O)Nc5ccon5)ccc43)c(OC)c2)c1 [Example 1033, 1-(2′-fluoro-3,5′-dimethoxy-4-biphenylyl)-N-3-isoxazolyl-2-oxo-1,2-dihydro-6-quinolinesulfonamide] |  |  | IC50 [1]: 64 nM
COc1nc(-c2cc(F)cc(F)c2)c(Cl)cc1-n1c(=O)ccc2cc(S(=O)(=O)Nc3ncccn3)ccc21 [Example 1081, 1-(5-chloro-6-(3,5-difluorophenyl)-2-methoxy-3-pyridinyl)-2-oxo-N-2-pyrimidinyl-1,2-dihydro-6-quinolinesulfonamide] |  | 4150 nM | 
COc1cc(-c2cc(F)cc(Cl)c2)c(C)cc1-n1c(=O)ccc2cc(S(=O)(=O)Nc3ccon3)ccc21 (atropisomer, axis not shown; (M)) [Example 418, (M)-1-(3′-chloro-5′-fluoro-5-methoxy-2-methyl-4-biphenylyl)-N-3-isoxazolyl-2-oxo-1,2-dihydro-6-quinolinesulfonamide] | 309 nM |  | 
O=c1ccc2cc(S(=O)(=O)Nc3ccon3)ccc2n1-c1ccc(C(F)(F)F)cc1-c1cn[nH]c1 [Example 347, M-1-(2-(1H-pyrazol-4-yl)-4-(trifluoromethyl)phenyl)-N-(isoxazol-3-yl)-2-oxo-1,2-dihydroquinoline-6-sulfonamide] | 6600 nM |  | 
COc1cc(-c2cc(F)cnc2OC)c(C)cc1-n1c(=O)ccc2cc(S(=O)(=O)Nc3ccon3)ccc21 (atropisomer, axis not shown; (P)) [Example 426, (P)-1-(4-(5-fluoro-2-methoxy-3-pyridinyl)-2-methoxy-5-methylphenyl)-N-3-isoxazolyl-2-oxo-1,2-dihydro-6-quinolinesulfonamide] | 63 nM |  | 
COc1cc(-c2cc(OC)c(-n3c(=O)ccc4cc(S(=O)(=O)Nc5ncc(F)cn5)ccc43)cc2F)ccc1F [Example 1010, 1-(2,4′-difluoro-3′,5-dimethoxy-4-biphenylyl)-N-(5-fluoro-2-pyrimidinyl)-2-oxo-1,2-dihydro-6-quinolinesulfonamide] |  | 74 nM | 
1-(2′-chloro-5-methoxy-2,3′-dimethyl-4-biphenylyl)-2-oxo-N-2-pyrimidinyl-1,2-dihydro-6-quinolinesulfonamide [Example 961] | 56 nM |  | 
COc1cc(-c2cc(OC)c(-n3c(=O)ccc4cc(S(=O)(=O)Nc5ccon5)ccc43)cc2F)ccc1F [Example 713, 1-(2,4′-difluoro-3′,5-dimethoxy-4-biphenylyl)-N-3-isoxazolyl-2-oxo-1,2-dihydro-6-quinolinesulfonamide] |  | 15 nM | 
COc1cc(-c2cnc(OC)c(Cl)c2)c(F)cc1-n1c(=O)ccc2cc(S(=O)(=O)Nc3ncco3)ccc21 (atropisomer, axis not shown; (P)) [Example 1158, (P)-1-(4-(5-chloro-6-methoxy-3-pyridinyl)-5-fluoro-2-methoxyphenyl)-N-1,3-oxazol-2-yl-2-oxo-1,2-dihydro-6-quinolinesulfonamide] |  |  | IC50 (in-vitro Nav 1.7 PX data, Table 4): 89 nM
COc1cc(-c2ccc(Cl)c(C)c2)ccc1-n1c(=O)ccc2cc(S(=O)(=O)Nc3ncc(F)cn3)ccc21 (atropisomer, axis not shown; (P)) [Example 690, (P)-1-(4′-chloro-3-methoxy-3′-methyl-4-biphenylyl)-N-(5-fluoro-2-pyrimidinyl)-2-oxo-1,2-dihydro-6-quinolinesulfonamide] |  | 49 nM | 
COc1cc([C@H]2CC[C@@H](C)CC2)c(F)cc1-n1c(=O)ccc2cc(S(=O)(=O)Nc3ccon3)ccc21 [Example 1083, 1-(5-fluoro-2-methoxy-4-(cis-4-methylcyclohexyl)phenyl)-N-3-isoxazolyl-2-oxo-1,2-dihydro-6-quinolinesulfonamide, 1-(5-fluoro-2-methoxy-4-(trans-4-methylcyclohexyl)phenyl)-N-3-isoxazolyl-2-oxo-1,2-dihydro-6-quinolinesulfonamide] |  | 10 nM | 
O=c1ccc2cc(S(=O)(=O)Nc3ccon3)ccc2n1-c1ccc(C(F)(F)F)cc1-c1cn[nH]c1 [Example 346, P-1-(2-(1H-pyrazol-4-yl)-4-(trifluoromethyl)phenyl)-N-(isoxazol-3-yl)-2-oxo-1,2-dihydroquinoline-6-sulfonamide] | 648 nM |  | 
COc1cc(-c2cnc(OC)c(Cl)c2)c(F)cc1-n1c(=O)ccc2cc(S(=O)(=O)Nc3ncc(F)cn3)ccc21 (atropisomer, axis not shown; (P)) [Example 1156, (P)-1-(4-(5-chloro-6-methoxy-3-pyridinyl)-5-fluoro-2-methoxyphenyl)-N-(5-fluoro-2-pyrimidinyl)-2-oxo-1,2-dihydro-6-quinolinesulfonamide] | 42 nM |  | 
COc1cc(-c2cc(C)ccc2F)ccc1-n1c(=O)ccc2cc(S(=O)(=O)Nc3ccon3)ccc21 [Example 1032, 1-(2′-fluoro-3-methoxy-5′-methyl-4-biphenylyl)-N-3-isoxazolyl-2-oxo-1,2-dihydro-6-quinolinesulfonamide] |  |  | IC50 [1]: 49 nM
COc1cc(C#CC2CCCC2)ccc1-n1c(=O)ccc2cc(S(=O)(=O)Nc3cccnn3)ccc21 (atropisomer, axis not shown; (P)) [Example 1239, (P)-1-(4-(cyclopentylethynyl)-2-methoxyphenyl)-2-oxo-N-3-pyridazinyl-1,2-dihydro-6-quinolinesulfonamide] | 113 nM |  | 
COc1cc(C#CC2CCCC2)c(F)cc1-n1c(=O)ccc2cc(S(=O)(=O)Nc3ncco3)ccc21 [Example 1136, 1-(4-(cyclopentylethynyl)-5-fluoro-2-methoxyphenyl)-N-1,3-oxazol-2-yl-2-oxo-1,2-dihydro-6-quinolinesulfonamide] |  | 48 nM | 
COc1cc(-c2ccc(C)cc2Cl)c(F)cc1-n1c(=O)ccc2cc(S(=O)(=O)Nc3ccon3)ccc21 [Example 725, 1-(2′-chloro-2-fluoro-5-methoxy-4′-methyl-4-biphenylyl)-N-3-isoxazolyl-2-oxo-1,2-dihydro-6-quinolinesulfonamide] |  | 12 nM | 
